Test results reported in patent US20260206796A1, “FEED COMPOSITIONS” (Solugen, Inc., priority 2023, published 2026).
Where a name gives a salt, the structure may show the parent alone.

Key:
Assay type in all cases: in vivo
freshwater shrimp = experiment: 10 week shrimp feeding trial with feed additives (phosphate level in tank water, survival); conditions: for Shrimp survival rate: over 10 weeks of feeding trial, 1.2% additive in diet
Source text: To validate if gluconates can be used as an acidulant additives in fish feed to increase shrimp's digestion and reduce phosphate discharge to aquaculture farm water, freshwater shrimp were fed with 1) regular shrimp diet as a control, 2) the same shrimp diet with 1.2% of an FIA, particularly gluconate, as disclosed herein and 3) the shrimp diet with 1.2% sodium citrate as an additive.
Phosphate reduction was equivalently high level to slightly better than citric acid up to 12.5 wt. %. This functionality of reducing phosphate level in discharged water from aquaculture farms is beneficial with respect to environmental regulations as aquaculture farmers are dealing with and the restrictions on the allowed phosphate level in the discharged water waste from aquaculture farms.

tilapia [1] = experiment: 2 month tilapia growth trial on soybean meal-based diets (growth, feed conversion, phosphorus discharge); conditions: additive 0.5 wt. % in diet; for Fecal phosphorus content compared to control diet: feces after 2 months on diets; for Phosphorus discharge (via urine) in the water compared to soybean based control diet: new clean water sampled after 4 hours
Source text: The efficacy of an FIA used as fish feed was investigated. The aim of this study was to assess the efficacy of (i) a feed comprising an FIA of the type disclosed herein (e.g., gluconate) on the growth, phosphorus discharge, biochemical composition and histopathology in tilapia when compared to (ii) a soybean meal-based diet that would have a similar formulation as commercial feeds or (iii) a soybean meal-based diet that includes an FIA of the type disclosed herein or sodium citrate, respectively. Sodium citrate was chosen because this is a competitive chelator and has in the past shown to improve phosphorus utilization/reduce phosphorus discharge in various aquatic animals.
To compare the efficacy of an FIA of the type disclosed herein, a total of 4 isonitrogenous and isolipidic diets were formulated to satisfy the nutritional requirements of tilapia. The crude protein and crude lipid content of the diets were all 32 wt. % and 8 wt. %, respectively. However, the percentages of proteins and supplements were altered to satisfy the aims of this study. Soybean meal was used across all diets. Diet 1 was the control with only soybean meal (cellulose at 0.5 wt. %).
The FIA appeared like packaging peanuts, and thus needed to be ground into a fine powder for the product to be adequately mixed in the diet. All diets were made using a pelleter and the pellets were dried in an oven at 60° C. and stored at −20° C. until use.
A total of 90 all male tilapia were equally distributed among 9 oval polyethylene tanks that ran on a recirculating system. Thus, all the fish shared the same water throughout the 2 month growth trial. After the fish were stocked, of approximately equal size, the tanks were randomly allocated their treatments in triplicate. For the first week, the tilapia were fed the control diet to acclimate them to the experimental conditions and then after a week were hand fed twice daily to apparent satiation on their respective experimental diets.
Throughout the study, excess waste was manually siphoned out of the system and water exchanges were provided weekly. Feed intake was recorded to later calculate the feed conversion ratio. Fish feces were collected, dried and measured for the phosphorus levels after 2 months.
(§1) After 2 months, all the fish were weighed to assess weight gain. Two fish/tank were sampled for liver and intestinal histopathology and the muscle sent out for biochemical analysis. The remaining fish were placed in new clean water and the water was sampled at 4 hours and measured for phosphorus levels mostly derived from urine.

tilapia [2] = experiment: Liver and intestinal histopathology of tilapia after 2 months on the diets; conditions: for Intestinal histopathology / Liver histopathology / hepatic toxicity: additive 0.5 wt. % in diet, hematoxylin and eosin staining
Description: as §1

Row | Compound | Shrimp survival rate (freshwater shrimp) [%] | Fecal phosphorus content compared to control diet (tilapia [1]) | Phosphorus discharge (via urine) in the water compared to soybean based control diet (tilapia [1]) | Intestinal histopathology (tilapia [2]) | Liver histopathology / hepatic toxicity (tilapia [2]) | Liver histopathology / hepatic toxicity (tilapia [2]; listed as Sodium citrate) | Intestinal histopathology (tilapia [2]; listed as citrate) | Phosphate reduction compared to citric acid (freshwater shrimp; 1.2% additive in shrimp diet, vs citric acid additive diet) | Phosphate reduction in tank water compared to control (regular shrimp diet) (freshwater shrimp; 1.2% additive in shrimp diet, vs control diet) | Overall safety for consumption at the level tested (tilapia [2]; 0.5 wt. % in diet) | Liver histopathology / hepatic toxicity (tilapia [2]; listed as FIA) | Liver histopathology / hepatic toxicity (tilapia [2]; listed as sugar oxidation product)
1 | O=C(O)CC(O)(CC(=O)O)C(=O)O [sodium citrate, reference compound] | 58 | significantly less | significantly less | inflammation of the intestinal villi and goblet cell hyperplasia | varying degrees of hepatic lesions | hepatic toxicity based on both mild effects (localized inflammation) to severe (extensive necrosis, vacuolization and hemorrhaging) | severe inflammation in goblet cell (gc) and the lamina propria (lp) | – | – | – | – | –
2 | O=C(O)[C@H](O)[C@@H](O)[C@H](O)[C@H](O)CO [gluconate] | 75 | significantly less | significantly less | no such adverse effects | – | – | – | up to 12.5 wt. % | up to 19 wt. % | safe for tilapia consumption | no hepatic toxicity | normal sinusoid organization with clear central veins and intact and well dispersed pancreatic islets
